Assay results taken from PMC4623604, “Discovery of Small Molecules that Inhibit the Disordered Protein, p27^Kip1” (Scientific Reports, 2015).

Key:
p27-KID = target: T1, p27-KID (Homo sapiens, UniProt P46527); assay: NMR fragment screening and 2D 1H-15N HSQC chemical shift perturbation mapping; assay type: binding; design: key to Binding Group (site of chemical shift perturbations in p27-KID): Molecules in Group 1 bound to a localized region, F87YY89; molecules in Group 2 bound to this region as well as two others containing two W residues (W60 and W76); details: 2D 1H-15N HSQC, 100 μM 15N-p27-KID
T1 construct: 6xHis (N, cleaved yes); made in house; host or cells: E. coli (pET28a)
T1 sequence (P46527 22-105): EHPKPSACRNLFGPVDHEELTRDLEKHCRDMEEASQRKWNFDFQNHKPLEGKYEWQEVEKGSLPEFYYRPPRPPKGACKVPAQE
Source text: We used one-dimensional (1D) ^1H WaterLOGSY[35] and STD[36] […] Fragment molecules were selected from either a commercial library (1,100 compounds from the Ro3 collection, Maybridge/Thermo Fisher Scientific) or an in-house library of 1,222 compounds based on the “Rule of Three”[40] and other criteria (see Methods). […] Binding sites for these compounds were identified by titration into ^15N-p27-KID and analysis of two-dimensional (2D) ^1H-^15N HSQC spectra. […] We termed these molecules Groups 1 and 2, respectively (Fig. 1b,c); representative ^1H CSP histograms are shown in Fig. 1d,e, and ^15N CSPs are presented in Suppl. Fig. 2. Data for all other small molecules are shown in Suppl. Fig. 3.
Screening and validation NMR experiments were performed at 298 K (25 °C) using either a Varian Inova 600 MHz spectrometer equipped with a triple resonance (HCN) room temperature gradient probe or a Bruker Avance 600 MHz spectrometer equipped with TCI cryogenic gradient probe and a SampleJet sample changer. Fragment molecules were initially analyzed as pools of five molecules dissolved at 10 mM each in DMSO-D6. […] For initial fragment screening experiments, one-dimensional (1D) ^1H- and WaterLOGSY[35] NMR spectra were recorded for compound pools without and with protein. […] DMSO-D6 was added to maintain a constant concentration (2% vol/vol). […] Tryptophan and tyrosine, respectively, were titrated into ^15N-p27-KID (100 μM) up to 3 mM. Three-dimensional (3D) backbone triple-resonance experiments to establish resonance assignments for the p27 constructs were performed using the Bruker Avance 600 MHz spectrometer. […] Fig. 12b,c and d,e, respectively. 2D ^1H-^15N TROSY-HSQC NMR experiments with ^2H/^13C/^15N-p27-D2/Cdk2/cyclin A and SJ403 have been recorded at 308 K (35 °C). 2D ^1H-^15N HSQC experiments of representative fragment hits (1 mM of SJ319843, group 1 and SJ403, group 2, respectively) with ^15N-p21-KID (20 μM) were recorded at 298 K using a Bruker Avance 600 MHz spectrometer. NMR spectra were processed using Bruker Topspin software and analyzed using computer-aided resonance assignment (CARA) software.
Chemical shift perturbations are generally quantified as combined ^1H and ^15N chemical shift values. […] Thus, the use of a combined chemical shift values would mask the effects of compound binding. […] Thus, the assessment of statistical significance was based upon whether a particular CSP value was larger than, i) the experimental spectral resolution in the given dimension (^1H or ^15N) and ii) the quantity, Δδave + 2σ, for that dimension.

p27-D2-FL/Cdk2/cyclin A = target: T2, p27-D2-FL/Cdk2/cyclin A (Homo sapiens, UniProt P46527, C99S/R93C); assay: Fluorescence anisotropy displacement of p27-D2-FL from Cdk2/cyclin A; assay type: binding; details: 20 nM p27-D2-FL, 300 nM Cdk2/cyclin A, SJ403 0-3 mM; read-out: IC50, reduction of fluorescence anisotropy of p27-D2-FL (displacement from Cdk2/cyclin A)
T2 construct: p27-D2 (residues 58-105 of human p27); 6xHis (N, cleaved yes); made in house; host or cells: E. coli for p27-D2
T2 sequence (P46527 58-105 R93C/C99S): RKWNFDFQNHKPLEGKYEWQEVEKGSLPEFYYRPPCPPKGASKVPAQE
Source text: We used the Group 2 molecule, SJ403 (Suppl. Table 1b), to test our hypothesis that molecules that bind to p27 can alter its Cdk regulatory function. […] We first used fluorescence anisotropy (FA) to monitor displacement of a single-cysteine (Cys) mutant of p27-D2, with arginine 93 mutated to Cys (R93C) and labeled with Alexa Fluor 488 (p27-D2-FL), from Cdk2/cyclin A by SJ403.
The p27-D2-C99S-R93C mutant was conjugated with Alexa Fluor488-C5-Maleimide (Life Technologies, p27-D2-FL) in buffer containing 20 mM Na phosphate, pH7.3, 20 mM NaCl according to the manufacturer’s protocol. The conjugated protein was further purified by reverse-phase high performance liquid chromatography (HPLC) using a C4 column (Vydac) and 0.1% trifluoroacetic acid-containing water/acetonitrile solvent system. Lyophilized HPLC fractions were resuspended in buffer containing 20 mM Na phosphate, pH 7, 200 mM NaCl, 3.5 mM TCEP. Fluorescence anisotropy measurements were performed at 25 °C on a Horiba Fluorolog 3 spectrofluorometer. Briefly, p27-D2-FL (20 nM) was mixed with Cdk2/Cyclin A (300 nM) and added to the required amount of lyophilized compound (SJ403). All samples have been incubated overnight in the dark at 4 °C prior to fluorescence measurements. Fluorescence anisotropy binding data was analyzed using KaleidaGraph. […]

- Binding Group (site of chemical shift perturbations in p27-KID) (p27-KID): Group 2
- IC50 (p27-D2-FL/Cdk2/cyclin A): 475 ± 67 µM
Compound: CCn1c(C)c(C)n2c3c(=O)n(C)c(=O)n(C)c3nc12 [SJ403]
